Tests used:
Type in all cases: in vivo
barnyardgrass [1] = experiment: Test Example 1: herbicidal effects in preemergence treatment under submerged conditions; details: dose 2.52 g/a
How it was run: (§1)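 Weed seeds and 2.5-leaf rice seedlings shared each flooded cup of alluvial soil. Dosing, expressed as g per are, was by pouring water-diluted emulsifiable concentrate onto the surface on sowing day. Mortality was graded 0 to 5 after three weeks' growth.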

bulrush [2] = experiment: as above; details: dose 2.52 g/a
How it was run: as §1

ducksalad [3] = experiment: as above; details: dose 2.52 g/a
How it was run: as §1

transplanted rice = experiment: Test Example 1: preemergence treatment under submerged conditions, effect on crop; details: dose 2.52 g/a
How it was run: as §1

barnyardgrass [4] = experiment: Test Example 2: herbicidal effects during the vegetation period under submerged conditions; details: treatment during the vegetation period under submerged conditions; dose 2.52 g/a
How it was run: (§2)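 Barnyardgrass, bulrush and ducksalad were co-sown in alluvial soil flooded to 4 cm and grown in a greenhouse at 25 to 30° C. At the 1- or 2-leaf stage, water-diluted emulsifiable concentrates went onto the water surface at set doses (g/a). Herbicidal effect was scored three weeks later on a graded scale.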

bulrush [5] = experiment: as above; details: treatment during the vegetation period under submerged conditions; dose 2.52 g/a
How it was run: as §2

ducksalad [6] = experiment: as above; details: treatment during the vegetation period under submerged conditions; dose 2.52 g/a
How it was run: as §2

Italian ryegrass [7] = experiment: Test Example 3: herbicidal effects in soil treatment; details: dose 3.2 g/a
How it was run: (§3)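 Seeds were sown in sterilized diluvial soil and covered with about 1.5 cm of soil. Compounds, formulated as emulsifiable concentrates and diluted with water, were sprayed evenly over the soil surface at set doses in g/a. Herbicidal effect was scored on a rating scale three weeks later.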

barnyardgrass [8] = experiment: as above; details: dose 3.2 g/a
How it was run: as §3

beadstraw [9] = experiment: as above; details: dose 3.2 g/a
How it was run: as §3

common chickweed [10] = experiment: as above; details: dose 3.2 g/a
How it was run: as §3

common lambsquater [11] = experiment: as above; details: dose 3.2 g/a
How it was run: as §3

common ragweed [12] = experiment: as above; details: dose 3.2 g/a
How it was run: as §3

giant foxtail [13] = experiment: as above; details: dose 3.2 g/a
How it was run: as §3

large crabgrass [14] = experiment: as above; details: dose 3.2 g/a
How it was run: as §3

posumbu knotweed [15] = experiment: as above; details: dose 3.2 g/a
How it was run: as §3

redroot pigweed [16] = experiment: as above; details: dose 3.2 g/a
How it was run: as §3

velvetleaf [17] = experiment: as above; details: dose 3.2 g/a
How it was run: as §3

water foxtail [18] = experiment: as above; details: dose 3.2 g/a
How it was run: as §3

Italian ryegrass [19] = experiment: Test Example 4: herbicidal effect in foliage treatment; details: dose 3.2 g/a
How it was run: (§4)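 A uniform foliar spray of emulsifiable concentrate, diluted with water to give the stated g/a dose, was applied to plants raised for 14 days from seed in sterilized diluvial soil at 25 to 30° C. Herbicidal effects were scored three weeks later.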

barnyardgrass [20] = experiment: as above; details: dose 3.2 g/a
How it was run: as §4

beadstraw [21] = experiment: as above; details: dose 3.2 g/a, three weeks after application
How it was run: as §4

common chickweed [22] = experiment: as above; details: dose 3.2 g/a
How it was run: as §4

common lambsquater [23] = experiment: as above; details: dose 3.2 g/a
How it was run: as §4

common ragweed [24] = experiment: as above; details: dose 3.2 g/a
How it was run: as §4

giant foxtail [25] = experiment: as above; details: dose 3.2 g/a
How it was run: as §4

large crabgrass [26] = experiment: as above; details: dose 3.2 g/a
How it was run: as §4

posumbu knotweed [27] = experiment: as above; details: dose 3.2 g/a
How it was run: as §4

redroot pigweed [28] = experiment: as above; details: dose 3.2 g/a
How it was run: as §4

velvetleaf [29] = experiment: as above; details: dose 3.2 g/a
How it was run: as §4

water foxtail [30] = experiment: as above; details: dose 3.2 g/a
How it was run: as §4

[31] = three weeks after the application

Row | SMILES | A: barnyardgrass, herbicidal effect (evaluation scale 0-5) (barnyardgrass [1]) | B: bulrush, herbicidal effect (evaluation scale 0-5) (bulrush [2]) | C: ducksalad, herbicidal effect (evaluation scale 0-5) (ducksalad [3]) | a: transplanted rice, effect on crop (evaluation scale 0-5) (transplanted rice) | A: barnyardgrass, herbicidal effect (evaluation scale 0-5) (barnyardgrass [4]) | B: bulrush, herbicidal effect (evaluation scale 0-5) (bulrush [5]) | C: ducksalad, herbicidal effect (evaluation scale 0-5) (ducksalad [6]) | H: Italian ryegrass, herbicidal effect (evaluation scale 0-5) (Italian ryegrass [7]) | A: barnyardgrass, herbicidal effect (evaluation scale 0-5) (barnyardgrass [8]) | O: beadstraw, herbicidal effect (evaluation scale 0-5) (beadstraw [9]) | N: common chickweed, herbicidal effect (evaluation scale 0-5) (common chickweed [10]) | L: common lambsquater, herbicidal effect (evaluation scale 0-5) (common lambsquater [11]) | J: common ragweed, herbicidal effect (evaluation scale 0-5) (common ragweed [12]) | E: giant foxtail, herbicidal effect (evaluation scale 0-5) (giant foxtail [13]) | D: large crabgrass, herbicidal effect (evaluation scale 0-5) (large crabgrass [14]) | M: posumbu knotweed, herbicidal effect (evaluation scale 0-5) (posumbu knotweed [15]) | K: redroot pigweed, herbicidal effect (evaluation scale 0-5) (redroot pigweed [16]) | I: velvetleaf, herbicidal effect (evaluation scale 0-5) (velvetleaf [17]) | G: water foxtail, herbicidal effect (evaluation scale 0-5) (water foxtail [18]) | other results
1 | CC1(C)CC(=O)N(Cc2ccccc2N(C(=O)OCCCl)S(=O)(=O)C(F)(F)F)CO1 [II-28] | 5 (mortality of 90% or above (nearly complete death)) | 5 (mortality of 90% or above (nearly complete death)) | 5 (mortality of 90% or above (nearly complete death)) | 4 (mortality of at least 70% and less than 90%) | 5 (mortality of 90% or above (nearly complete death)) | 5 (mortality of 90% or above (nearly complete death)) | 5 (mortality of 90% or above (nearly complete death)) | 2 (mortality of at least 20% and less than 40%) | 5 (mortality of 90% or above (nearly complete death)) | 5 (mortality of 90% or above (nearly complete death)) | 4 (mortality of at least 70% and less than 90%) | 0 (mortality of less than 5% (almost ineffective)) | 4 (mortality of at least 70% and less than 90%) | 5 (mortality of 90% or above (nearly complete death)) | 5 (mortality of 90% or above (nearly complete death)) | 5 (mortality of 90% or above (nearly complete death)) | 0 (mortality of less than 5% (almost ineffective)) | 4 (mortality of at least 70% and less than 90%) | 5 (mortality of 90% or above (nearly complete death)) | H: Italian ryegrass, herbicidal effect (Italian ryegrass [19]; three weeks after application): 3 (mortality of at least 40% and less than 70%); A: barnyardgrass, herbicidal effect (barnyardgrass [20]; three weeks after application): 5 (mortality of 90% or above (nearly complete death)); O: beadstraw, herbicidal effect (beadstraw [21]): 5 (mortality of 90% or above (nearly complete death)); N: common chickweed, herbicidal effect (common chickweed [22]; three weeks after application): 4 (mortality of at least 70% and less than 90%); L: common lambsquater, herbicidal effect (common lambsquater [23]; three weeks after application): 1 (mortality of at least 5% and less than 20%); J: common ragweed, herbicidal effect (common ragweed [24]; three weeks after application): 3 (mortality of at least 40% and less than 70%); E: giant foxtail, herbicidal effect (giant foxtail [25]; three weeks after application): 4 (mortality of at least 70% and less than 90%); D: large crabgrass, herbicidal effect (large crabgrass [26]; three weeks after application): 4 (mortality of at least 70% and less than 90%); M: posumbu knotweed, herbicidal effect (posumbu knotweed [27]; three weeks after application): 4 (mortality of at least 70% and less than 90%); K: redroot pigweed, herbicidal effect (redroot pigweed [28]; three weeks after application): 0 (mortality of less than 5% (almost ineffective)); I: velvetleaf, herbicidal effect (velvetleaf [29]; three weeks after application): 4 (mortality of at least 70% and less than 90%); G: water foxtail, herbicidal effect (water foxtail [30]; three weeks after application): 5 (mortality of 90% or above (nearly complete death))
2 | CCOC(=O)N(c1ccccc1CN1C(=O)CC(C)(C)OC1C)S(=O)(=O)C(F)(F)F (stereo not shown) [II-74] | 5 (mortality of 90% or above (nearly complete death)) | 5 (mortality of 90% or above (nearly complete death)) | 5 (mortality of 90% or above (nearly complete death)) | 3 (mortality of at least 40% and less than 70%) | 5 (mortality of 90% or above (nearly complete death)) | 5 (mortality of 90% or above (nearly complete death)) | 5 (mortality of 90% or above (nearly complete death)) | 4 (mortality of at least 70% and less than 90%) | 5 (mortality of 90% or above (nearly complete death)) | 4 (mortality of at least 70% and less than 90%) | 3 (mortality of at least 40% and less than 70%) | 1 (mortality of at least 5% and less than 20%) | 2 (mortality of at least 20% and less than 40%) | 5 (mortality of 90% or above (nearly complete death)) | 5 (mortality of 90% or above (nearly complete death)) | 5 (mortality of 90% or above (nearly complete death)) | 0 (mortality of less than 5% (almost ineffective)) | 5 (mortality of 90% or above (nearly complete death)) | 5 (mortality of 90% or above (nearly complete death)) | H: Italian ryegrass, herbicidal effect (Italian ryegrass [19]; [31]): 5 (mortality of 90% or above (nearly complete death)); A: barnyardgrass, herbicidal effect (barnyardgrass [20]; [31]): 5 (mortality of 90% or above (nearly complete death)); N: common chickweed, herbicidal effect (common chickweed [22]; [31]): 4 (mortality of at least 70% and less than 90%); L: common lambsquater, herbicidal effect (common lambsquater [23]; [31]): 3 (mortality of at least 40% and less than 70%); J: common ragweed, herbicidal effect (common ragweed [24]; [31]): 3 (mortality of at least 40% and less than 70%); E: giant foxtail, herbicidal effect (giant foxtail [25]; [31]): 3 (mortality of at least 40% and less than 70%); D: large crabgrass, herbicidal effect (large crabgrass [26]; [31]): 5 (mortality of 90% or above (nearly complete death)); M: posumbu knotweed, herbicidal effect (posumbu knotweed [27]; [31]): 4 (mortality of at least 70% and less than 90%); K: redroot pigweed, herbicidal effect (redroot pigweed [28]; [31]): 0 (mortality of less than 5% (almost ineffective)); I: velvetleaf, herbicidal effect (velvetleaf [29]; [31]): 5 (mortality of 90% or above (nearly complete death)); G: water foxtail, herbicidal effect (water foxtail [30]; [31]): 5 (mortality of 90% or above (nearly complete death))
